Data as given in publication PMC7181280, “Synthesis, Structure and In Vitro Anti-Trypanosomal Activity of Non-Toxic Arylpyrrole-Based Chalcone Derivatives” (Molecules, 2020).
Where two headings read alike, the source gives them in different places.

Key:
[1] = In vitro cytotoxicity assay, HeLa cells (resazurin cell viability); type: cell-based; conditions: human
Description: (§1) A single concentration (20 µM) cytotoxicity evaluation of all compounds was conducted in duplicates using a human cervix adenocarcinoma (HeLa) cell line, with emetine (EMT) included as a reference drug and cell viability relative to untreated cells assessed using resazurin. […] The anti-trypanosomal activity of prepared compounds against nagana T. b. brucei (the subspecies responsible for African trypanosomiasis in cattle) parasite cultures were determined using the T. b. brucei 427 strain. Pentamidine (PMD), which is an existing drug for the treatment of trypanosomiasis, was included as a positive control drug. The trypanocidal activity of each compound was initially assessed at a fixed concentration of 20 μM, using resazurin as a read-out of cell viability after compound exposure. […] From Table 1, the structural modification was initially performed on the arylpyrrole moiety (ring B) of the chalcones, while keeping the ring A unchanged. […] Introduction of the fluorine, highly electronegative atom, at the para-position (10b) appeared to enhance the activity against T. b. brucei; however, the activity diminished when the fluorine was replaced by chlorine (10c).
HeLa cells (Cellonex, Johannesburg, South Africa) seeded in 96-well plates were incubated with 20 µM test compounds and cell viability assessed with resazurin, as previously described. Fluorescence readings (excitation 560 nm, emission 590 nm) obtained for the individual wells were converted to % cell viability relative to the average readings obtained from untreated control wells. Plots of % cell viability vs. log[compound] were used to determine IC50 values by non-linear regression using GraphPad Prism (v. 5.02).

[2] = tested on: Trypanosoma brucei brucei 427 trypomastigotes; test: In vitro antitrypanosomal assay (resazurin parasite viability); type: cell-based; conditions: T. b. brucei 427 strain; for IC50: Trypanosoma brucei
Description: as §1
Trypanosoma brucei brucei 427 trypomastigotes were cultured in Iscove’s Modified Dulbecco’s medium (IMDM, Lonza, Basel Switzerland) and supplemented with 10% fetal calf serum, HMI-9 supplement, hypoxanthine and penicillin/streptomycin at 37 °C in a 5% CO2 incubator. Serial dilutions of test compounds were incubated with the parasites in 96-well plates for 24 h, and residual parasite viability in the wells determined by adding 20 µL resazurin toxicology reagent (Sigma-Aldrich) and incubating for an additional 24 h. Reduction of resazurin to resorufin by viable parasites was assessed by fluorescence readings (excitation 560 nm, emission 590 nm) in a Spectramax M3 plate reader (Molecular Devices, San Jose, CA, USA). Fluorescence readings were converted to % parasite viability relative to the average readings obtained from untreated control wells. IC50 values were determined by plotting % viability vs. log[compound] and performing non-linear regression using GraphPad Prism (v. 5.02) software.

[3] = 48 h, 24 h compound incubation + 24 h resazurin, na = not active (cell viability ≥50% in preliminary single point assay at 20 μM), read-out: T. b. brucei IC50
[4] = 24 h compound incubation + 24 h resazurin, na = not active (cell viability ≥50% in preliminary single point assay at 20 μM)

Row | Structure (SMILES) | viability at 20 µM [1] | IC50 [2, 3] | also measured
1 | Cc1cc(/C=C/C(=O)c2cc(Br)ccc2O)c(C)n1-c1ccccc1 [Compound 10a, (E)-1-(5-Bromo-2-hydroxyphenyl)-3-(2,5-dimethyl-1-phenyl-1H-pyrrol-3-yl)prop-2-en-1-one] | > 100% | 11.5 µM | –
2 | Cc1cc(/C=C/C(=O)c2cc(Br)ccc2O)c(C)n1-c1ccc(F)cc1 [Compound 10b, (E)-1-(5-Bromo-2-hydroxyphenyl)-3-(1-(4-fluorophenyl)-2,5-dimethyl-1H-pyrrol-3-yl)prop-2-en-1-one] | > 100% | 6.9 µM | –
3 | Cc1cc(/C=C/C(=O)c2cc(Br)ccc2O)c(C)n1-c1ccc(Cl)cc1 [Compound 10c, (E)-1-(5-Bromo-2-hydroxyphenyl)-3-(1-(4-chlorophenyl)-2,5-dimethyl-1H-pyrrol-3-yl)prop-2-en-1-one] | > 100% | 40 µM | –
4 | Cc1cc(/C=C/C(=O)c2cc(Br)ccc2O)c(C)n1-c1ccc(Br)cc1 [Compound 10d, (E)-1-(5-Bromo-2-hydroxyphenyl)-3-(1-(4-bromophenyl)-2,5-dimethyl-1H-pyrrol-3-yl)prop-2-en-1-one] | > 100% | 10.5 µM | –
5 | Cc1cc(/C=C/C(=O)c2cc(Br)ccc2O)c(C)n1-c1cccc(C(F)(F)F)c1 [Compound 10e, (E)-1-(5-Bromo-2-hydroxyphenyl)-3-(2,5-dimethyl-1-(3-(trifluoromethyl)phenyl)-1H-pyrrol-3-yl)prop-2-en-1-one] | > 100% | 4.09 µM | –
6 | Cc1cc(/C=C/C(=O)c2cc(Br)ccc2O)c(C)n1-c1ccc(C(F)(F)F)cc1 [Compound 10f, (E)-1-(5-Bromo-2-hydroxyphenyl)-3-(2,5-dimethyl-1-(4-(trifluoromethyl)phenyl)-1H-pyrrol-3-yl)prop-2-en-1-one] | > 100% | 11.4 µM | –
7 | Cc1cc(/C=C/C(=O)c2cc(Br)ccc2O)c(C)n1-c1ccccc1C(F)(F)F [Compound 10g, (E)-1-(5-Bromo-2-hydroxyphenyl)-3-(2,5-dimethyl-1-(2-(trifluoromethyl)phenyl)-1H-pyrrol-3-yl)prop-2-en-1-one] | > 100% | 10 µM | –
8 | Cc1cc(/C=C/C(=O)c2cc(Br)ccc2O)c(C)n1-c1ccc([N+](=O)[O-])cc1 [Compound 10h, (E)-1-(5-Bromo-2-hydroxyphenyl)-3-(2,5-dimethyl-1-(4-nitrophenyl)-1H-pyrrol-3-yl)prop-2-en-1-one] | > 100% | < 6 µM | –
9 | Cc1cc(/C=C/C(=O)c2cc(Br)ccc2O)c(C)n1-c1cccc([N+](=O)[O-])c1 [Compound 10i, (E)-1-(5-bromo-2-hydroxyphenyl)-3-(2,5-dimethyl-1-(3-nitrophenyl)-1H-pyrrol-3-yl)prop-2-en-1-one] | 51.2% | < 10 µM | –
10 | COc1ccc(-n2c(C)cc(/C=C/C(=O)c3cc(Br)ccc3O)c2C)cc1 [Compound 10j, (E)-1-(5-Bromo-2-hydroxyphenyl)-3-(1-(4-methoxyphenyl)-2,5-dimethyl-1H-pyrrol-3-yl)prop-2-en-1-one] | > 100% | – | T. b. brucei IC50 [2, 4]: no activity
11 | Cc1cc(/C=C/C(=O)c2cc(Br)ccc2O)c(C)[nH]1 [Compound 10k, (E)-1-(5-Bromo-2-hydroxyphenyl)-3-(2,5-dimethyl-1H-pyrrol-3-yl)prop-2-en-1-one] | > 100% | – | T. b. brucei IC50 [2, 4]: complete loss of activity
12 | Cc1cc(/C=C/C(=O)c2cc(Br)ccc2O)c(C)n1C1CCCCC1 [Compound 10l, (E)-1-(5-Bromo-2-hydroxyphenyl)-3-(1-cyclohexyl-2,5-dimethyl-1H-pyrrol-3-yl)prop-2-en-1-one] | 99.2% | 11.5 µM | –
13 | O=C(/C=C/c1c[nH]cn1)c1cc(Br)ccc1O [Compound 11a, (E)-1-(5-Bromo-2-hydroxyphenyl)-3-(1H-imidazol-4-yl)prop-2-en-1-one] | 78.1% | – | T. b. brucei IC50 [2, 4]: no activity
14 | COc1ccc2nc(Cl)c(/C=C/C(=O)c3cc(Br)ccc3O)cc2c1 [Compound 11b] | 99.3% | 9.1 µM | –
15 | Cc1cc(/C=C/C(=O)c2ccccc2)c(C)n1-c1ccc([N+](=O)[O-])cc1 [Compound 12, (E)-3-(2,5-Dimethyl-1-(4-nitrophenyl)-1H-pyrrol-3-yl)-1-phenylprop-2-en-1-one] | 84.7% | – | melting point: 169 to 174 °C
16 | Cc1ccc(C(=O)/C=C/c2cc(C)n(-c3ccc([N+](=O)[O-])cc3)c2C)cc1 [Compound 13, (E)-3-(2,5-Dimethyl-1-(4-nitrophenyl)-1H-pyrrol-3-yl)-1-(p-tolyl)prop-2-en-1-one] | > 100% | 44.3 µM | melting point: 172 to 173 °C
17 | Cc1cc(/C=C/C(=O)c2ccc(F)cc2)c(C)n1-c1ccc([N+](=O)[O-])cc1 [Compound 14, (E)-3-(2,5-Dimethyl-1-(4-nitrophenyl)-1H-pyrrol-3-yl)-1-(4-fluorophenyl)prop-2-en-1-one] | 99.4% | 36.5 µM | melting point: 160 to 164 °C
18 | COc1ccc(C(=O)/C=C/c2cc(C)n(-c3ccc([N+](=O)[O-])cc3)c2C)cc1 [Compound 15, (E)-3-(2,5-Dimethyl-1-(4-nitrophenyl)-1H-pyrrol-3-yl)-1-(4-methoxyphenyl)prop-2-en-1-one] | 98.9% | 12.3 µM | melting point: 157 to 158 °C
19 | COc1ccc(C(=O)/C=C/c2cc(C)n(-c3ccc([N+](=O)[O-])cc3)c2C)c(OC)c1 [Compound 16, (E)-1-(2,4-Dimethoxyphenyl)-3-(2,5-dimethyl-1-(4-nitrophenyl)-1H-pyrrol-3-yl)prop-2-en-1-one] | > 100% | 10.6 µM | –
20 | Cc1cc(/C=C/C(=O)c2ccc([N+](=O)[O-])cc2)c(C)n1-c1ccc([N+](=O)[O-])cc1 [Compound 17, (E)-3-(2,5-Dimethyl-1-(4-nitrophenyl)-1H-pyrrol-3-yl)-1-(4-nitrophenyl)prop-2-en-1-one] | – | – | viability at 20 µM ([1]; single concentration 20 µM, duplicates, relative to untreated cells, read-out: HeLa %Viability (residual percentage viability)): > 100%; melting point: 175 to 178 °C
21 | Cc1cc(/C=C/C(=O)c2cc(Cl)ccc2O)c(C)n1-c1cccc(C(F)(F)F)c1 [Compound 18, (E)-1-(5-Chloro-2-hydroxyphenyl)-3-(2,5-dimethyl-1-(3-(trifluoromethyl)phenyl)-1H-pyrrol-3-yl)prop-2-en-1-one] | 79.9% | 9.3 µM | –
22 | Cc1cc(/C=C/C(=O)c2cc(Cl)ccc2O)c(C)n1-c1cccc([N+](=O)[O-])c1 [Compound 19, (E)-1-(5-Chloro-2-hydroxyphenyl)-3-(2,5-dimethyl-1-(3-nitrophenyl)-1H-pyrrol-3-yl)prop-2-en-1-one] | 81.2% | 11.7 µM | –
23 | CC[C@H]1CN2CCc3cc(OC)c(OC)cc3[C@@H]2C[C@@H]1C[C@H]1NCCc2cc(OC)c(OC)cc21 [EMT, emetine, reference compound] | – | – | IC50 ([1]; HeLa cells, resazurin, read-out: HeLa cytotoxicity of reference drug (printed in the %Viability column with unit μM)): 0.76 µM
24 | N=C(N)c1ccc(OCCCCCOc2ccc(C(=N)N)cc2)cc1 [PMD, Pentamidine, reference compound] | – | – | IC50 ([2]; read-out: T. b. brucei IC50 (positive control drug)): 0.00068 µM
